From patent US20250066351A1, “PYRAZOLO[1,5-A]PYRIDIN-2,3-YL AMIDES AS KV7 CHANNEL ACTIVATORS” (Biohaven Therapeutics Ltd., priority 2022, published 2025)

Molecular target: T1, hKv7.2/7.3 (Homo sapiens, UniProt O43525+O43526)
T1 construct: host or cells: HEK cells, tetracycline-inducible expression
Experiment: Kv7.2/7.3 Activation Assay, QPatch planar patch-clamp single concentration screen
Type: cell-based
Conditions: increase in current over baseline, Kv7.2/Kv7.3 co-expressing HEK cells, compound concentration 3 μM, steady-state current at end of 2 s pulse to −30 mV
Procedure: The ability of compounds to potentiate K-currents in Kv7.2/7.3 containing HEK cells was assessed using planar patch-clamp on the QPatch automated screening platform.
Cell Line: The hKv7.2/7.3 cell line was obtained from Chantest (Cleveland, OH 44128) cat. #CT6147. These HEK cells will express the Kv7.2/7.3 ion channels when induced.
Cell Culture: Cells were maintained in a media containing DMEM/F12; 50/50 (GIBCO cat. #11330), 10% Fetal Bovine Serum (FBS) (GIBCO cat. #26140), 100 units/mL Penicillin-Streptomycin (GIBCO cat. #15140), 0.005 mg/mL Blasticidin (INVIVOGEN cat. #ant-bl-1), 0.5 mg/mL Geneticin (GIBCO cat. #10131), 0.1 mg/mL Zeocin (GIBCO cat. #R25001). Cells used in the electrophysiology assay were maintained in a media without Blasticidin, Geneticin and Zeocin for 2 days and channel expression was induced by adding tetracycline (BIOLINE cat. #BIO-87030) at a final concentration of […]. Cells were grown in T-175 flask to ˜75% confluency. Currents were recorded 24 hours after channel induction.
Compound Plates: Test compounds were prepared by performing serial dilutions on a Biomek NX^P (BECKMAN COULTER). Final dilutions were made in external recording solution with a final DMSO concentration of 0.1% DMSO. For single concentration screens each plate had 10 μM retigabine as a positive control and 0.1% DMSO as a negative control.
Electrophysiology: On the day of the experiment cells were washed with Hank's Balanced Salt Solution (HBBS) (GIBCO cat. #14175) and harvested with Tryple (GIBCO cat. #12604). Cells were then centrifuged at 2000 rpm for 5 minutes and resuspended in CHO—S-SFM (GIBCO cat. #12052) at […]. Cells were stirred for 30 minutes before experiments were started. External recording solution contained (in mM): NaCl (145), KCl (4), CaCl2 (2), MgCl2 (1), HEPES (10) and Glucose (10); pH was adjusted to 7.4 with NaOH and the osmolarity was adjusted to 300-305 mOsM with sucrose if necessary. Internal solution contained (in mM): KCl (125), KF (10), EGTA (5), Na2ATP (5), MgCl2 (3.2), HEPES (5); pH was adjusted to 7.2 with KOH and the osmolarity was adjusted to 298-302 mOsM with sucrose.
Potassium channel activity was measured on the QPatch HTX (Sophion Bioscience) using QPlates with 48-wells/plate. Each cell was taken as an independent experiment and only one compound was tested per well. Potassium channel activity was elicited by holding at −80 mV and stepping to −30 mV for 2 s followed by a 100 ms pulse to −120 mV.
Single concentration screen: Baseline conditions were obtained by recording 5 sweeps in the external solution only, this was repeated for three applications of the external solution. The effect of test compounds on elicited current was then assessed by recording 5 sweeps in the presence of a 3 μM compound solution. The steady-state current at the end of the 2 s pulse to −30 mV was measured to determine the fold increase from baseline.

Compound | QPatch Kv7.2/7.3 Activity
CC(C)(O)CC(=O)Nc1nn2c(Br)cccc2c1C1CCC1 [Example 19, N-(7-bromo-3-cyclobutylpyrazolo[1,5-a]pyridin-2-yl)-3-hydroxy-3-methylbutanamide] | + (2.0-3.99 (+))
O=C(CC1(O)CCCC1)Nc1nn2ccc(Cl)cc2c1C1CCC1 [Example 20, N-(5-chloro-3-cyclobutylpyrazolo[1,5-a]pyridin-2-yl)-2-(1-hydroxycyclopentyl) acetamide] | + (2.0-3.99 (+))
O=C(CC1(O)CCCC1)Nc1nn2ccc(C(F)(F)F)cc2c1C1CCC1 [Example 21, N-(3-cyclobutyl-5-(trifluoromethyl)pyrazolo [1,5-a]pyridin-2-yl)-2-(1-hydroxycyclopentyl) acetamide] | + (2.0-3.99 (+))
O=C(CC1(O)CCC1)Nc1nn2ccc(C(F)(F)F)cc2c1-c1ccc(F)cc1 [Example 22, N-(3-(4-fluorophenyl)-5-(trifluoromethyl)pyrazolo [1,5-a]pyridin-2-yl)-2-(1-hydroxycyclobutyl) acetamide] | + (2.0-3.99 (+))
CC(O)(CC(=O)Nc1nn2ccc(C(F)(F)F)cc2c1C1CCC1)C1CCC1 (stereo not drawn) [Example 23, 3-cyclobutyl-N-(3-cyclobutyl-5-(trifluoromethyl)pyrazolo [1,5-a]pyridin-2-yl)-3-hydroxybutanamide] | + (2.0-3.99 (+))
COc1ccn2nc(NC(=O)CC(C)(O)C3CCCC3)c(C3CCC3)c2c1 (stereo not drawn) [Example 26, N-(3-cyclobutyl-5-methoxypyrazolo[1,5-a]pyridin-2-yl)-3-cyclopentyl-3-hydroxybutanamide] | + (2.0-3.99 (+))
CC(O)(CC(=O)Nc1nn2ccc(C(F)(F)F)cc2c1C1CCC1)c1ccccc1 (stereo not drawn) [Example 27, N-(3-cyclobutyl-5-(trifluoromethyl)pyrazolo [1,5-a]pyridin-2-yl)-3-hydroxy-3-phenylbutanamide] | + (2.0-3.99 (+))
CC(O)(CC(=O)Nc1nn2ccc(C#N)cc2c1C1CCC1)c1ccccc1 (stereo not drawn) [Example 28, N-(5-cyano-3-cyclobutylpyrazolo[1,5-a]pyridin-2-yl)-3-hydroxy-3-phenylbutanamide] | +/− (1.2-1.99-fold (+/−))
C[C@](O)(CC(=O)Nc1nn2ccc(C(F)(F)F)cc2c1C1CCC1)c1ccccc1 [Example 29, (S)-N-(3-cyclobutyl-5-(trifluoromethyl)pyrazolo [1,5-a]pyridin-2-yl)-3-hydroxy-3-phenylbutanamide] | ++ (4.0-5.99 (++))
C[C@](O)(CC(=O)Nc1nn2ccc(C#N)cc2c1C1CCC1)c1ccccc1 [Example 30, (S)-N-(5-cyano-3-cyclobutylpyrazolo[1,5-a]pyridin-2-yl)-3-hydroxy-3-phenylbutanamide] | + (2.0-3.99 (+))
C[C@](O)(CC(=O)Nc1nn2ccc(Cl)cc2c1C1CCC1)c1ccccc1 [Example 31, (S)-N-(5-chloro-3-cyclobutylpyrazolo[1,5-a]pyridin-2-yl)-3-hydroxy-3-phenylbutanamide] | + (2.0-3.99 (+))
C[C@](O)(CC(=O)Nc1nn2ccc(C(F)(F)F)cc2c1-c1ccc(F)cc1)c1ccccc1 [Example 32, (S)-N-(3-(4-fluorophenyl)-5-(trifluoromethyl)pyrazolo [1,5-a]pyridin-2-yl)-3-hydroxy-3-phenylbutanamide] | + (2.0-3.99 (+))
C[C@](O)(CC(=O)Nc1nn2c(Br)cccc2c1C1CCC1)c1ccccc1 [Example 33, (S)-N-(7-bromo-3-cyclobutylpyrazolo[1,5-a]pyridin-2-yl)-3-hydroxy-3-phenylbutanamide] | + (2.0-3.99 (+))
C[C@@](O)(CC(=O)Nc1nn2ccc(C(F)(F)F)cc2c1C1CCC1)c1ccccc1 [Example 34, (R)-N-(3-cyclobutyl-5-(trifluoromethyl)pyrazolo [1,5-a]pyridin-2-yl)-3-hydroxy-3-phenylbutanamide] | − (<1.2-fold (−))
C[C@@](O)(CC(=O)Nc1nn2ccc(C(F)(F)F)cc2c1C1CCC1)c1ccccn1 [Example 35, (R)-N-(3-cyclobutyl-5-(trifluoromethyl)pyrazolo [1,5-a]pyridin-2-yl)-3-hydroxy-3-(pyridin-2-yl)butanamide] | + (2.0-3.99 (+))
C[C@@](O)(CC(=O)Nc1nn2ccc(C#N)cc2c1C1CCC1)c1ccccn1 [Example 36, (R)-N-(5-cyano-3-cyclobutylpyrazolo[1,5-a]pyridin-2-yl)-3-hydroxy-3-(pyridin-2-yl)butanamide] | + (2.0-3.99 (+))
C[C@@](O)(CC(=O)Nc1nn2ccc(C(F)(F)F)cc2c1-c1ccc(F)cc1)c1ccccn1 [Example 37, (R)-N-(3-(4-fluorophenyl)-5-(trifluoromethyl)pyrazolo [1,5-a]pyridin-2-yl)-3-hydroxy-3-(pyridin-2-yl)butanamide] | ++ (4.0-5.99 (++))
C[C@@](O)(CC(=O)Nc1nn2ccc(C(F)(F)F)cc2c1-c1ccccc1)c1ccccn1 [Example 38, (R)-3-hydroxy-N-(3-phenyl-5-(trifluoromethyl)pyrazolo [1,5-a]pyridin-2-yl)-3-(pyridin-2-yl)butanamide] | ++ (4.0-5.99 (++))
C[C@@](O)(CC(=O)Nc1nn2ccc(C(F)(F)F)cc2c1-c1cccc(F)c1)c1ccccn1 [Example 39, (R)-N-(3-(3-fluorophenyl)-5-(trifluoromethyl)pyrazolo [1,5-a]pyridin-2-yl)-3-hydroxy-3-(pyridin-2-yl)butanamide] | + (2.0-3.99 (+))
Cc1ccc(-c2c(NC(=O)C[C@@](C)(O)c3ccccn3)nn3ccc(C(F)(F)F)cc23)cc1 [Example 40, (R)-3-hydroxy-3-(pyridin-2-yl)-N-(3-(p-tolyl)-5-(trifluoromethyl)pyrazolo[1,5-a]pyridin-2-yl)butanamide] | + (2.0-3.99 (+))
C[C@](O)(CC(=O)Nc1nn2ccc(C(F)(F)F)cc2c1C1CCC1)c1ccccn1 [Example 41, (S)-N-(3-cyclobutyl-5-(trifluoromethyl)pyrazolo [1,5-a]pyridin-2-yl)-3-hydroxy-3-(pyridin-2-yl)butanamide] | ++ (4.0-5.99 (++))
C[C@](O)(CC(=O)Nc1nn2ccc(C(F)(F)F)cc2c1-c1ccc(F)cc1)c1ccccn1 [Example 42, (S)-N-(3-(4-fluorophenyl)-5-(trifluoromethyl)pyrazolo [1,5-a]pyridin-2-yl)-3-hydroxy-3-(pyridin-2-yl)butanamide] | + (2.0-3.99 (+))
C[C@](O)(CC(=O)Nc1nn2ccc(C#N)cc2c1C1CCC1)c1ccccn1 [Example 43, (S)-N-(5-cyano-3-cyclobutylpyrazolo[1,5-a]pyridin-2-yl)-3-hydroxy-3-(pyridin-2-yl)butanamide] | + (2.0-3.99 (+))
CC(C)(O)CC(=O)Nc1nn2ccc(C(F)(F)F)cc2c1-c1ccc(Cl)s1 [Example 44, N-(3-(5-chlorothiophen-2-yl)-5-(trifluoromethyl)pyrazolo [1,5-a]pyridin-2-yl)-3-hydroxy-3-methylbutanamide] | + (2.0-3.99 (+))
CC(C)(O)CC(=O)Nc1nn2ccc(C(F)(F)F)cc2c1-c1ccc(Cl)nc1 [Example 45, N-(3-(6-chloropyridin-3-yl)-5-(trifluoromethyl)pyrazolo [1,5-a]pyridin-2-yl)-3-hydroxy-3-methylbutanamide] | +/− (1.2-1.99-fold (+/−))
CC(C)(O)CC(=O)Nc1nn2ccc(C(F)(F)F)cc2c1-c1ccccc1F [Example 46, N-(3-(2-fluorophenyl)-5-(trifluoromethyl)pyrazolo [1,5-a]pyridin-2-yl)-3-hydroxy-3-methylbutanamide] | +/− (1.2-1.99-fold (+/−))
Cc1cccc(-c2c(NC(=O)CC(C)(C)O)nn3ccc(C(F)(F)F)cc23)c1 [Example 47, 3-hydroxy-3-methyl-N-(3-(m-tolyl)-5-(trifluoromethyl)pyrazolo [1,5-a]pyridin-2-yl)butanamide] | + (2.0-3.99 (+))
